Here are results for six compounds from publication PMC10513218, “Effect of Green and Red Thai Kratom (Mitragyna speciosa) on pancreatic digestive enzymes (alpha-glucosidase and lipase) and acetyl-carboxylase 1 activity: A possible therapeutic target for obesity prevention” (PLOS ONE, 2023).

The target in experiment [1] is T1, alpha-glucosidase (Saccharomyces cerevisiae, UniProt P53341). In words: Inhibition of alpha-glucosidase with pNPG as substrate. Format: biochemical. The note with it: for Mode of inhibition of alpha-glucosidase: Lineweaver-Burk plots. Here is the method:
Inhibition of alpha-glucosidase was performed using p-nitrophenol-α-D-glucopyranoside (pNPG) as a substrate. […] After 10 min, the reactions were started with the addition of pNPG at 0.007, 0.015, 0.03, 0.06, 0.125, 0.25, and 5 mM. The mode of inhibition and inhibition constant (Ki) were determined by Lineweaver-Burk plots.

Experiment [2] concerns the target T2, lipase (Homo sapiens, UniProt P16233).
T2 sequence (P16233 17-465): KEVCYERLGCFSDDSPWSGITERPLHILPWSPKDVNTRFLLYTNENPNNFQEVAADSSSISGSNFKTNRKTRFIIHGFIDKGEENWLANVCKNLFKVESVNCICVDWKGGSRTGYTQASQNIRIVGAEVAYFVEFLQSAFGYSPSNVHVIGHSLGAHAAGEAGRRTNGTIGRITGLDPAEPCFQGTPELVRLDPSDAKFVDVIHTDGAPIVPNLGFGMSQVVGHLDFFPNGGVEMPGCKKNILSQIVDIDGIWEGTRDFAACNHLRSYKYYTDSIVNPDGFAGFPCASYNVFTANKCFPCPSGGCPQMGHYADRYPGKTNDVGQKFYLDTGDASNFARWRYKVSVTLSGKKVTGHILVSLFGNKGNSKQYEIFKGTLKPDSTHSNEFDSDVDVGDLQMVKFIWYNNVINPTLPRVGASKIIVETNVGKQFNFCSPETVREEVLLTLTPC
Kind of experiment: Inhibition of lipase with pNPP as substrate. Format: biochemical. The protocol:
Inhibition of lipase was performed using p-nitrophenyl palmitate (pNPP) as a substrate. […] The IC50 was determined by plotting the remaining activity of lipase at each inhibitor concentration and […]. […] After 10 min, the reactions were started by the addition of pNPP at 0.02, 0.03, 0.06, 0.125, 0.25, 3.5 and 5 mM. The mode of inhibition and inhibition constant (Ki) were determined by Lineweaver-Burk plots.

The conditions of experiment [3]: HFD-induced rats, versus control group; cited from earlier work.
Experiment [4] has as its system T3, ACC1.
T3 construct: purchased BPS Bioscience (USA)
Kind of experiment: ACC1 inhibition assay (ACC1 Assay Kit, acetyl-CoA decrease by HPLC). Format: biochemical. Particulars: for Effect on ACC1 activity: 0, 1, 10, 100 μM. The protocol:
An ACC1 inhibition assay was performed using the ACC1 Assay Kit from BPS Bioscience (USA) following the manufacturer’s protocol. […] After a 10-minute pre-incubation period, the reaction was initiated by adding 0.1 ng/mL of ACC1 enzyme. The reactions were allowed to proceed for 40 minutes before being terminated by the addition of 100 μl of chilled acetonitrile. The samples were then centrifuged, and the supernatants were carefully transferred to new tubes for analysis. The rate of reaction was quantified by monitoring the decrease in acetyl-CoA substrate concentration using a C18 HPLC column, employing a mobile phase consisting of a linear gradient of water and methanol.

Experiment [5] has as its target T1, alpha-glucosidase. The arrangement: method as in doi:10.1016/j.fshw.2014.11.003. The note with it: cited from earlier work.

Where “and” joins values, the source holds several entries; their conditions need not be identical. Equal entries are not always repeated. Where two headings read alike, the source gives them in different places.

T1 sequence (P53341 whole entry): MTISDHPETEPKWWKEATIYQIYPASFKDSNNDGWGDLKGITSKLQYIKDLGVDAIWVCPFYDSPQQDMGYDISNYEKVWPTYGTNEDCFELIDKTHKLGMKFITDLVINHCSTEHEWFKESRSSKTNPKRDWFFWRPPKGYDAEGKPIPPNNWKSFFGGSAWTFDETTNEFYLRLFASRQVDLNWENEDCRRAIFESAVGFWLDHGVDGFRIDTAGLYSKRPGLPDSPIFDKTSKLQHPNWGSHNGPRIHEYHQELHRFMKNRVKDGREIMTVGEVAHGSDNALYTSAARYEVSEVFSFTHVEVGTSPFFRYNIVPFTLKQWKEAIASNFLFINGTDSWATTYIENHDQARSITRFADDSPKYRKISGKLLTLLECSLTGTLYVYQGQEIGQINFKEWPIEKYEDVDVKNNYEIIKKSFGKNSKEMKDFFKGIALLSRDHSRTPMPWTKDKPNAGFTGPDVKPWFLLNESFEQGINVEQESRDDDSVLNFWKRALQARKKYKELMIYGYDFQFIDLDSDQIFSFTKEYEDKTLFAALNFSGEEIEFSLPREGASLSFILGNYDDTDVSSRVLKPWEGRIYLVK

For the compound `C[C@H]1O[C@H](O[C@H]2[C@H](O)[C@@H](O)[C@@H](O[C@H]3[C@H](O)[C@@H](O)C(O)O[C@@H]3CO)O[C@@H]2CO)[C@H](O)[C@@H](O)[C@@H]1N[C@H]1C=C(CO)[C@@H](O)[C@H](O)[C@H]1O` (some centres unmarked) [Acarbose, acarbose, reference compound], in experiment [1], the “Mode of inhibition of alpha-glucosidase” value is reported as “Non-competitive inhibition”.

With `O=c1c(O)c(-c2ccc(O)c(O)c2)oc2cc(O)cc(O)c12` [Quercetin], the “Mode of inhibition of lipase” value in experiment [2] (Lineweaver-Burk plots) is given as “Competitive inhibition”. Besides, the Plasma triglyceride entry in experiment [3] was “lower than in the control group”. The “Effect on ACC1 activity” value in experiment [4] is reported as “decreased ACC1 activity in a dose-dependent manner”. In experiment [4] (100 μM), the “Decrease of ACC1 activity” value was 60%.

Regarding `CCCCCCCCCCC[C@@H](C[C@@H]1OC(=O)[C@H]1CCCCCC)OC(=O)[C@H](CC(C)C)NC=O` [Orlistat, orlistat, reference compound], in experiment [2] (Lineweaver-Burk plots), the “Mode of inhibition of lipase” value is reported as “Competitive inhibition”.

`C[C@@H]1O[C@@H](OC[C@H]2O[C@@H](Oc3c(-c4ccc(O)c(O)c4)oc4cc(O)cc(O)c4c3=O)[C@H](O)[C@@H](O)[C@@H]2O)[C@H](O)[C@H](O)[C@H]1O` [Rutin, rutin]: in experiment [2] (pure compounds and positive control, pNPP at Km 1.3 mM, unit given, read-out: Half-maximal inhibitory concentration (IC50) Lipase), the IC50 is > 100 µM.

With `COc1ccc2c(c1)[nH]c1c3c(c(C)cc12)O[C@](C)(CCC=C(C)C)C=C3` [O-methyl mahanine], the IC50 in experiment [5] is 46.1 µM.

Turning to `CCC1CN2CCc3c([nH]c4cccc(OC)c34)C2CC1/C(=C\OC)C(=O)OC` (centres unmarked) [Mitragynine], in experiment [2], the IC50 was 27.4 ± 2.9 µM. Moreover, in experiment [2] (Ki lipase, Lineweaver-Burk plots, pNPP), the Ki is 13.7 µM and 7 µM. In addition, the “Mode of inhibition of lipase” value in experiment [2] (Lineweaver-Burk plots) was “Competitive inhibition”. Besides, in experiment [1], the “Mode of inhibition of alpha-glucosidase” value is “mix-typed inhibition”. Besides, in experiment [1] (ratio of acarbose IC50 to IC50), the “Alpha-glucosidase IC50 lower than acarbose” value came out at 7.3 fold. In experiment [4], the “Effect on ACC1 activity” value was “not and weak inhibitory effect”.

In general, Ki refers to the equilibrium dissociation constant of an inhibitor or competing ligand from its target. Read a low Ki as higher affinity.
